Measured values from patent US5919803A, “3-benzylamino-2-phenylpiperidines as neurokinin antagonists” (Glaxo Group Limited, priority 1995, dated 1999).

Test system: radiation-induced emesis in the ferret
Assay: radiation-induced emesis in the ferret
Format: in vivo
Details: 0.1 mg/kg s.c., compound administered 1.5 hours prior to irradiation (whole body, 2 Grey)
Experimental: In this model of emesis the onset of retching and vomiting occurs approximately 20 minutes after whole body irradiation (2 Grey=200 Rads). The test compound is administered (e.g. i.p, p.o., i.v., s.c) immediately after irradiation and its effect on emesis determined by comparison with appropriate controls. […] Alternatively, the test compounds may be administered before irradiation or before treatment with an emetogen, for example 1.5, 3 or 6 hours before irradiation.

SMILES: CCOc1ccc(-n2nnnc2C(F)(F)F)cc1CN[C@H]1CCCN[C@H]1c1ccccc1.Cl.Cl [Example 1, [2-Ethoxy-5(5-trifluoromethyl-tetrazol-1-yl)-benzyl]-([2S,3S]-2-phenylpiperidine-3-yl)amine dihydrochloride]
- inhibition of radiation-induced emesis: inhibited radiation-induced emesis
